For series [1], the system named is esterase (carboxylic-ester hydrolase, EC 3.1.1.1). Kind of series: Stability toward purified esterases: esterase (carboxylic-ester hydrolase, EC 3.1.1.1). Format: in vitro ADME, porcine. The conditions noted are these: pH 8.0, 37.0° C., over 2-3 hours. How it is done: (§1) The effect of esterase (carboxylic-ester hydrolase, EC 3.1.1.1) and butyryl cholinesterase (EC 3.1.1.8), isolated from porcine liver and horse serum, was tested as follows: A portion of the enzyme and […] of a standard solution of the compound in methanol were added to 2.50 ml of 0.05M TRIS buffer, pH 8.0, previously equilibrated to 37.0° C., resulting in solutions containing 5.2 units of enzyme and 0.4 mg of compound in one ml. Aliquots ([…]) were injected into the column at various intervals.

Series [2] concerns butyryl cholinesterase (EC 3.1.1.8). Description: Stability toward purified esterases: butyryl cholinesterase (EC 3.1.1.8). The conditions noted are these: pH 8.0, 37.0° C., over 2-3 hours. The class given is in vitro ADME, horse. The method, then: as §1
Series [3] is described as follows: Estimation of LD50 in mice. The following applies: mouse, in vivo, ip, intraperitoneal in dimethylsulfoxide, observed for 48 hr. An excerpt: The LD50 in white CD-1 male mice (average mass, 24.0±0.1 g) was estimated.
Series [4] in a line: In vivo evaluation in rats (blood, urine and feces levels). Details: species or system female Wistar rats. The conditions noted are these: for Compound in urine after intravenous injection: i.v. The method, then: A solution of test compound in DMSO was injected slowly through the jugular vein (65 mg/kg) to a group of female Wistar rats (150-200 g), 1.00 ml blood samples were taken at various time intervals, mixed with 2.00 ml of ice cold acetonitrile, and placed in a freezer. When all samples had been collected, they were centrifuged and the supernatant analyzed by HPLC. In a separate experiment urine samples were collected after i.v. administration of the test compound. A solution of test compound in polyethylene glycol was given p.o. to a group of rats (0.25 g/kg) and blood samples analyzed as before. Also, urine and feces samples were analyzed after p.o. administration of the test compound.

Series [5] is described as follows: Stability toward human plasma. Format: in vitro ADME. The conditions noted are these: 37.0° C., over 2-3 hours. The method, then: The freshly collected human plasma was stored in a refrigerator and used within 1 week from the date it was collected. A portion of […] at a standard methanol solution of the compound to be tested was mixed with 7.0 ml of plasma, previously equilibrated to 37.0° C., to result in an initial concentration of 0.2 mg/ml. Samples of 1.0 ml were withdrawn from the test medium, mixed immediately with 4.0 ml of ice cold 95% ethanol, and placed in a freezer. When all samples had been collected, they were centrifuged and the supernatant analyzed by HPLC.

The subject of series [6] is ventricular arrhythmia. Kind of series: Evaluation of antiarrhythmic activity in dogs (ouabain-induced ventricular arrhythmia). The conditions noted are these: for minimal effective dose: Canis lupus familiaris, iv, ouabain arrhythmia, i.v. infusion 0.5 mg/kg/min, read-out: Dose ± s.d. (dose of compound producing reversion to normal rhythm); for Duration of normal sinus rhythm after drug infusion: after end of i.v. infusion; for Dose required to produce reversion to normal rhythm relative to lidocaine / Duration of the effect relative to lidocaine: compared with lidocaine; for Arrhythmia activity in dogs: in words. Format: in vivo, dog. The method, then: Dogs of either sex were anesthetized with pentabarbital sodium, 30 mg/kg, i.v. A lead II EKG was recorded and heart rate monitored on a Grass polygraph with appropriate signal treatment modules. […] After a 20 minute stabilization period during which fast paper speed record segments (100 mm/sec) were taken to assess EKG profile, a […] dose of ouabain was injected intravenously as bolus. This was followed by 5 mg/kg doses of ouabain i.v., every 10 minutes, until a ventricular arrthymias occured--at lest 50% ventricular or septal ectopic beats. This usually occurred after a total dose of about 60 mg/kg. After 10 min of sustained arrhythmia, the compound to be tested was given by i.v. in fusion at a rate of 0.5 mg/kg/min (2 ml/min, flow-rate). The infusion was maintained until a normal sinus node heart rhythm was noted. The infusion was stopped and the total dose of compound administered was determined. The length of time that the normal sinus rhythm persisted after the end of infusion of the compound was also determined.
In the table above, "dose" is dose of compound mg/kg producing reversion to normal rhythm. "Duration" is duration in minutes of normal sinus rhythm after drug infusion.

Series [7] in a line: Metabolism in bovine liver microsomal preparations. The class given is in vitro ADME. The following applies: 37.0° C., pH 8.0, 1 mg/ml. How it is done:
Two kg of minced bovine liver were mixed with 4 liters of homogenization medium (0.34M sucrose, 1 mM EDTA, and 5 mM TRIS-HCI buffer ph 7.5) and sieved through a screen. The sieved tissue was homogenized for 2 min in a Tekmar grinder. The homogenate was centrifuged successively at 980 g for 10 min and 10960 g for 10 min. The resulting supernatant was then centrifuged at 31300 g for 45 min. All procedures were carried out at 4° C. The microsomal pallet was suspended in an equal volume of 20 mM TRIS-HCI buffer pH 8.0 containing 1 mM EDTA. Centrifugation of this suspension at 123000 g for 90 min gave a pallet which is referred to as the washed microsomes. This pallet could be stored frozen for months with little loss of activity.
The washed microsomes were mixed in a ratio of 1:2 (v/v) with 50 mM TRIS-HCI buffer ph 8.0. To 3.0 ml of this solution, previously equilibrated to 37.0° C., was added 0.2 ml of a standard solution of the compound to be tested resulting in an initial concentration of 1 mg/ml. Samples of 0.50 ml were withdrawn from the test medium, mixed immediately with 1.0 ml of ice cold 95% ethanol and place in a freezer. When all samples had been collected, they were centrifuged and the supernatant analyzed by HPLC.

For series [8] the following is noted: intravenous, after uptake by highly perfused organs; cited from earlier work.

Each structure is given as a SMILES string.

Results on three molecules are retold here after patent US4859707A, “Sulfur-substituted phenylacetamides” (Key Pharmaceuticals, Inc., priority 1983, dated 1989).

`CCSCC(=O)Nc1c(C)cccc1C` [Example 5, 2-Ethylthio-N-(2,6-dimethylphenyl)acetamide]: in series [1], the “Stability / degradation by esterase” value is given as “no degradation could be observed over a period of 2-3 hours”. Besides, the “Stability / degradation by butyryl cholinesterase” value in series [2] is listed as “no degradation could be observed over a period of 2-3 hours”. Further, in series [3], the 50% lethal dose (LD50) at 48 h is 2100 mg/kg. Moreover, the “Compound in urine after intravenous injection” value in series [4] is “Only minimal amounts”. Further, in series [4] (p.o.), the Bioavailability result is recorded as “good bioavailability”, the “Unchanged compound in feces (in words)” value is on record as “no unchanged compound could be detected in the feces or the urine” and the “Unchanged compound in urine” value is reported as “no unchanged compound could be detected in the feces or the urine”. Moreover, the “Stability / degradation in human plasma” value in series [5] is “no degradation could be observed over a period of 2-3 hours”. Further, in series [6], the minimal effective dose was found to be 2.5 ± 2.8 mg/kg, the “Duration of normal sinus rhythm after drug infusion” value (from here on “Duration of normal sinus rhythm”) is over 20 min, the “Dose required to produce reversion to normal rhythm relative to lidocaine” value is on record as “somewhat larger doses were required” and the “Duration of the effect relative to lidocaine” value is on record as “much longer”. In series [6], the “Arrhythmia activity in dogs” value is “considerable arrhythmia activity”.
Take `Cc1cccc(C)c1NC(=O)C[S+](C)C` [Example 2, 2-Dimethylsulfonic-N-(2,6-dimethylphenyl)acetamide iodide]: in series [1], the “Stability / degradation by esterase” value is recorded as “no degradation could be observed over a period of 2-3 hours”. For the same molecule, the “Stability / degradation by butyryl cholinesterase” value in series [2] is recorded as “no degradation could be observed over a period of 2-3 hours”. Moreover, in series [3], the LD50 at 48 h was 300 mg/kg. In addition, the “Compound in urine after intravenous injection” value in series [4] is recorded as “Only minimal amounts”. In series [4] (p.o.), the “Unchanged compound in blood” value is “significant amounts of the unchanged compound could be detected in the blood” and the “Unchanged compound in urine” value is recorded as “nothing in the urine”. Besides, the “Absorption after oral administration” value in series [4] (p.o. 0.25 g/kg) is listed as “absorbed slowly”. The dose excreted in series [4] (rat, feces, po, 250 mg/kg, p.o., read-out: Unchanged compound in feces) is about 7%. The “Stability / degradation in human plasma” value in series [5] is on record as “no degradation could be observed over a period of 2-3 hours”. In series [6], the minimal effective dose came to 3.82 ± 0.85 mg/kg, the “Duration of normal sinus rhythm” value is over 15 min, the “Dose required to produce reversion to normal rhythm relative to lidocaine” value was “somewhat larger doses were required” and the “Duration of the effect relative to lidocaine” value is reported as “much longer”. Besides, in series [6], the “Arrhythmia activity in dogs” value was “considerable arrhythmia activity”. Besides, the “Hydrolysis by bovine liver microsomes” value in series [7] is listed as “hydrolyzed very slowly”.
In the case of `CCN(CC)CC(=O)Nc1c(C)cccc1C` [lidocaine, reference compound], in series [8], the “Part of the dose left in blood” value was “about 15%”. In addition, in series [6], the minimal effective dose was determined as 1.84 ± 0.32 mg/kg and the “Duration of normal sinus rhythm” value was determined as 1.23 ± 0.37 min.

What is called LD50 is the dose expected to kill half of the subjects tested.
